Experimental findings from PubChem BioAssay AID342 (DTP/NCI, 2004) are described below.

For this test, the system named is Swiss mice, Sarcoma 180 sc, mean tumor weight T/C. Kind of test: NCI In Vivo Anticancer Drug Screen. Data for tumor model Sarcoma 180 (subcutaneous) in Swiss mice. The settings on record: endpoint: mean tumor weight, higher = larger tumour. In short, it runs like this:
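Transplantable tumors were established in mice, compound was given, then survival or tumor size was recorded. The treated value was divided by the vehicle-control value.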

Several values for one entry are separate records, joined by “and”; a condition that tells them apart may be missing. Identical values can stand only once.

What is called T/C is the ratio of treated to control.

As for `c1ncc2[nH]cnc2n1`, the T/C was 90 % of control (dose: 31.25 mg/kg/injection, schedule: Q#A X014 (ip), vehicle: carboxymethylcellulose (CMC)); 108 % of control (dose: 31.31 mg/kg/injection, schedule: Q#A X014 (ip), vehicle: carboxymethylcellulose (CMC)); 70 % of control (dose: 57.5 mg/kg/injection, schedule: Q01DX007 (ip), vehicle: carboxymethylcellulose (CMC)); 120 % of control (dose: 62.5 mg/kg/injection, schedule: Q#A X014 (ip), vehicle: carboxymethylcellulose (CMC)); 91 % of control (dose: 62.62 mg/kg/injection, schedule: Q#A X014 (ip), vehicle: carboxymethylcellulose (CMC)); 120 % of control (dose: 76.65 mg/kg/injection, schedule: Q#A X014 (ip), vehicle: carboxymethylcellulose (CMC)). Further, the T/C by setting is: (dose: 115.0 mg/kg/injection, schedule: Q01DX007 (ip), vehicle: carboxymethylcellulose (CMC)) 67 % of control; (dose: 115.0 mg/kg/injection, schedule: Q#A X014 (ip), vehicle: carboxymethylcellulose (CMC)) 93 % of control; (dose: 125.0 mg/kg/injection, schedule: Q#A X014 (ip), vehicle: carboxymethylcellulose (CMC)) 59 % of control; (dose: 125.25 mg/kg/injection, schedule: Q#A X014 (ip), vehicle: carboxymethylcellulose (CMC)) 66 % of control; (dose: 153.3 mg/kg/injection, schedule: Q#A X014 (ip), vehicle: carboxymethylcellulose (CMC)) 95 % of control; (dose: 196.4 mg/kg/injection, schedule: Q01DX007 (ip), vehicle: carboxymethylcellulose (CMC)) 88 % of control. Moreover, the T/C reads like this: (dose: 200.4 mg/kg/injection, schedule: Q01DX007 (ip), vehicle: carboxymethylcellulose (CMC)) 99 % of control; (dose: 230.0 mg/kg/injection, schedule: Q01DX007 (ip), vehicle: carboxymethylcellulose (CMC)) 42 % of control; (dose: 230.0 mg/kg/injection, schedule: Q#A X014 (ip), vehicle: carboxymethylcellulose (CMC)) 39 % of control; (dose: 245.5 mg/kg/injection, schedule: Q01DX007 (ip), vehicle: carboxymethylcellulose (CMC)) 90 % of control; (dose: 250.0 mg/kg/injection, schedule: Q#A X014 (ip), vehicle: carboxymethylcellulose (CMC)) 27 % of control; (dose: 250.5 mg/kg/injection, schedule: Q01DX007 (ip), vehicle: carboxymethylcellulose (CMC)) 111 % of control. For the same compound, the T/C reads like this: (dose: 250.5 mg/kg/injection, schedule: Q#A X014 (ip), vehicle: carboxymethylcellulose (CMC)) 9 % of control; (dose: 327.3 mg/kg/injection, schedule: Q01DX007 (ip), vehicle: carboxymethylcellulose (CMC)) 44 % of control; (dose: 334.0 mg/kg/injection, schedule: Q01DX007 (ip), vehicle: carboxymethylcellulose (CMC)) 68 % of control; (dose: 460.0 mg/kg/injection, schedule: Q01DX007 (ip), vehicle: carboxymethylcellulose (CMC)) 13 % of control; (dose: 491.0 mg/kg/injection, schedule: Q01DX007 (ip), vehicle: carboxymethylcellulose (CMC)) 48 % of control; (dose: 501.0 mg/kg/injection, schedule: Q01DX007 (ip), vehicle: carboxymethylcellulose (CMC)) 12 % of control.
For the compound `C[C@]12CCC(=O)C[C@H]1CC[C@@H]1[C@@H]2C(=O)C[C@@]2(C)[C@H]1CC[C@]2(C)O`, the T/C (dose: 5.0 mg/kg/injection, schedule: Q#A X014 (sc), vehicle: steriod suspending solution) is 72 % of control; the T/C (dose: 50.0 mg/kg/injection, schedule: Q#A X014 (sc), vehicle: steriod suspending solution) was 78 % of control; the T/C (dose: 150.0 mg/kg/injection, schedule: Q#A X014 (sc), vehicle: steriod suspending solution) is 110 % of control.
For the compound `C1CCCNCC1`, the T/C was 92 % of control (dose: 15.5 mg/kg/injection, schedule: Q01DX007 (ip), vehicle: other); 69 % of control (dose: 31.0 mg/kg/injection, schedule: Q01DX007 (ip), vehicle: other); 103 % of control (dose: 62.5 mg/kg/injection, schedule: Q01DX007 (ip), vehicle: other); 69 % of control (dose: 125.0 mg/kg/injection, schedule: Q01DX007 (ip), vehicle: other); 69 % of control (dose: 200.0 mg/kg/injection, schedule: Q01DX007 (ip), vehicle: other).
In the case of `CN(C)C1=C(Cl)C(=O)C(=O)c2cccnc21`, the T/C (dose: 6.25 mg/kg/injection, schedule: Q01DX007 (ip), vehicle: water) is 89 % of control and the T/C (dose: 12.5 mg/kg/injection, schedule: Q01DX007 (ip), vehicle: water) was 81 % of control.
Consider `C[C@H]1CC[C@@H]2[C@@H](C)[C@H]3[C@H](C[C@H]4[C@@H]5CC=C6C[C@@H](O)CC[C@]6(C)[C@H]5C[C@H](O)[C@]34C)N2C1`, for which the T/C is 73 % of control (dose: 10.0 mg/kg/injection, schedule: Q01DX007 (sc), vehicle: steriod suspending solution); 44 % of control (dose: 50.0 mg/kg/injection, schedule: Q01DX007 (sc), vehicle: steriod suspending solution); 62 % of control (dose: 100.0 mg/kg/injection, schedule: Q01DX007 (sc), vehicle: steriod suspending solution).
On to `CCCCNc1nc(NCCCC)c2nsnc2n1`, for which the T/C by setting is: (dose: 80.0 mg/kg/injection, schedule: Q01DX007 (ip), vehicle: carboxymethylcellulose (CMC)) 46 % of control; (dose: 100.0 mg/kg/injection, schedule: Q01DX007 (ip), vehicle: carboxymethylcellulose (CMC)) 56 % of control.
On to `CCCN(C)/N=N/c1nc[nH]c1C(N)=O`, for which the T/C reads like this: (dose: 31.0 mg/kg/injection, schedule: Q01DX007 (ip), vehicle: carboxymethylcellulose (CMC)) 55 % of control; (dose: 46.0 mg/kg/injection, schedule: Q01DX007 (ip), vehicle: carboxymethylcellulose (CMC)) 37 % of control; (dose: 62.0 mg/kg/injection, schedule: Q01DX007 (ip), vehicle: carboxymethylcellulose (CMC)) 34 % of control.
Regarding `[N-]=[N+]=CC(=O)CCC(N)C(=O)O` (stereo unspecified), the T/C runs as follows: (dose: 12.5 mg/kg/injection, schedule: Q#A X014 (ip), vehicle: saline) 45 % of control and 59 % of control; (dose: 25.0 mg/kg/injection, schedule: Q#A X014 (ip), vehicle: saline) 6 % of control and 17 % of control; (dose: 25.0 micrograms/kg/injection, schedule: Q01DX007 (ip), vehicle: carboxymethylcellulose (CMC)) 70 % of control; (dose: 50.0 micrograms/kg/injection, schedule: Q01DX007 (ip), vehicle: carboxymethylcellulose (CMC)) 51 % of control; (dose: 100.0 micrograms/kg/injection, schedule: Q01DX007 (ip), vehicle: carboxymethylcellulose (CMC)) 8 % of control.
Turning to `Cc1ccc(NCC2(/N=C/c3ccccc3)OC(CO)C(O)C2O)cc1` (stereo unspecified), the T/C by setting is: (dose: 111.0 mg/kg/injection, schedule: Q#A X014 (ip), vehicle: methylcellulose (MC)) 71 % of control and 72 % of control; (dose: 250.0 mg/kg/injection, schedule: Q#A X014 (ip), vehicle: methylcellulose (MC)) 67 % of control and 90 % of control.
Turning to `O=[As]O`, the T/C is 90 % of control (dose: 1.67 mg/kg/injection, schedule: Q01DX007 (ip), vehicle: carboxymethylcellulose (CMC)); 121 % of control (dose: 3.12 mg/kg/injection, schedule: Q#A X014 (ip), vehicle: carboxymethylcellulose (CMC)); 78 % of control (dose: 3.33 mg/kg/injection, schedule: Q01DX007 (ip), vehicle: carboxymethylcellulose (CMC)); 98 % of control (dose: 3.37 mg/kg/injection, schedule: Q01DX007 (ip), vehicle: carboxymethylcellulose (CMC)); 66 % of control (dose: 5.0 mg/kg/injection, schedule: Q01DX007 (ip), vehicle: carboxymethylcellulose (CMC)); 99 % of control (dose: 6.25 mg/kg/injection, schedule: Q#A X014 (ip), vehicle: carboxymethylcellulose (CMC)). Besides, the T/C by setting is: (dose: 6.65 mg/kg/injection, schedule: Q01DX007 (ip), vehicle: carboxymethylcellulose (CMC)) 85 % of control; (dose: 7.0 mg/kg/injection, schedule: Q01DX007 (ip), vehicle: carboxymethylcellulose (CMC)) 90 % of control; (dose: 9.0 mg/kg/injection, schedule: Q01DX007 (ip), vehicle: carboxymethylcellulose (CMC)) 83 % of control; (dose: 11.0 mg/kg/injection, schedule: Q01DX007 (ip), vehicle: carboxymethylcellulose (CMC)) 64 % of control.
Consider `O=C1c2ccccc2C(=O)N1CCF`, for which the T/C runs as follows: (dose: 4.0 mg/kg/injection, schedule: Q01DX007 (ip), vehicle: carboxymethylcellulose (CMC)) 90 % of control; (dose: 8.0 mg/kg/injection, schedule: Q01DX007 (ip), vehicle: carboxymethylcellulose (CMC)) 72 % of control.
